The values that follow come from US8236556B2, “Method of modulating gene expression using an ecdysone receptor-based inducible gene expression system” (Intrexon Corporation, priority 2001, dated 2012).

Data set [1] concerns GAL4CfEcR-DEF. The data set is described as follows: Transactivation of pFRLuc in NIH3T3 cells, VP16 RXR/USP constructs in partnership with GAL4CfEcR-DEF (FIG. 6). The data set is classed as cell-based, Choristoneura fumiferana. The settings on record: for sensitivity of the switch to steroid versus non-steroid ligand: CfEcR/chimeric RXR-based switch (switch 1.13). The method, then: (§1) Transfections: DNAs corresponding to the various switch constructs outlined in Example 1, specifically switches 1.1 through 1.6 were transfected into mouse NIH3T3 cells (ATCC) and human A549 cells (ATCC) as follows. […] NIH3T3 cells were grown in Dulbecco's modified Eagle medium (DMEM; LifeTechnologies) and A549 cells were grown in F12K nutrient mixture (LifeTechnologies). […] The cells were harvested and reporter activity was assayed. […] Reporter Assays: Cells were harvested 48 hours after adding ligands. […] Twenty μl of lysate were assayed. […] Thus, Applicants have made the surprising discovery that a chimeric RXR ligand binding domain may be used in place of a vertebrate RXR or an invertebrate RXR in an EcR-based inducible gene expression modulation system.
(§2) This Example describes the construction of four EcR-DEF-based gene switches comprising the DEF domains from Choristoneura fumiferana (Lepidoptera), Drosophila melanogaster (Diptera), Tenebrio molitor (Coleoptera), and Amblyomma americanum (Ixodidae) fused to a GAL4 DNA binding domain. In addition, the EF domains of vertebrate RXRs, invertebrate RXRs, or invertebrate USPs from Choristoneura fumiferana USP, Drosophila melanogaster USP, Locusta migratoria USP (Orthoptera), Mus musculus RXRα (Vertebrata), a chimera between MmRXRα and LmUSP (Chimera; of switch 1.13), Amblyomma americanum RXR homolog 1 (Ixodidae), Amblyomma americanum RXR homolog 2 (Ixodidae) were fused to a VP16 activation domain. […] The cells were harvested, lysed and luciferase reporter activity was measured in the cell lysates. Total fly luciferase relative light units are presented. […] The analysis was performed in triplicate and mean luciferase counts [total relative light units (RLU)] were determined as described above.

The target in a further data set is T1, GAL4DmEcR-DEF (Drosophila melanogaster, UniProt P34021).
T1 construct: The D, E, and F domains from fruit fly Drosophila melanogaster EcR; expressed in transfected cells; host or cells: mouse NIH3T3 cells
T1 sequence (P34021 330-878): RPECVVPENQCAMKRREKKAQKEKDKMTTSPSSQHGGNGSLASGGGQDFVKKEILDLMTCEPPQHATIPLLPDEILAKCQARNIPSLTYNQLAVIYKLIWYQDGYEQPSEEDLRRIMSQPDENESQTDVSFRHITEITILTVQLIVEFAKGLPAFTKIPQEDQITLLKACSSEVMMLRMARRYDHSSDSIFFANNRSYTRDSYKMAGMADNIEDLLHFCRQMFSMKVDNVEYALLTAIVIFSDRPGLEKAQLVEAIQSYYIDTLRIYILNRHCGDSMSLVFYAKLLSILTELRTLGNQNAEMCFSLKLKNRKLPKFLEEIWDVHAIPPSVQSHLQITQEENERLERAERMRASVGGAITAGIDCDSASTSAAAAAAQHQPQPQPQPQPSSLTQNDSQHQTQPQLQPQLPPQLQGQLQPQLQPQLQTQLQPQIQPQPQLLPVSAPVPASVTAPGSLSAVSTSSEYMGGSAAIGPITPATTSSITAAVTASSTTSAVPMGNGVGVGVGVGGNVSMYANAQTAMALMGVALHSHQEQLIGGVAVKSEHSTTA
In kind it is cell-based. To be noted: NIH3T3 cells; for sensitivity of the switch to steroid versus non-steroid ligand: DmEcR/chimeric RXR-based switch (switch 1.20). As for the experimental part: as §1, §2

Data set [2] concerns TmEcR/chimeric RXR-based switch (switch 1.21). As to the kind of experiment: Transactivation of pFRLuc in NIH3T3 cells, TmEcR with chimeric RXR-EF (FIG. 8). The data set is classed as cell-based, Tenebrio molitor. The settings on record: switch 1.21, NIH3T3 cells. As for the experimental part:
as §1
(§3) This Example describes the construction of four EcR-DEF-based gene switches comprising the DEF domains from Choristoneura fumiferana (Lepidoptera), Drosophila melanogaster (Diptera), Tenebrio molitor (Coleoptera), and Amblyomma americanum (Ixodidae) fused to a GAL4 DNA binding domain. […] The cells were harvested, lysed and luciferase reporter activity was measured in the cell lysates. […] The analysis was performed in triplicate and mean luciferase counts [total relative light units (RLU)] were determined as described above.

For data set [3], the system named is AmaEcR/chimeric RXR-based switch (switch 1.22). As to the kind of experiment: Transactivation of pFRLuc in NIH3T3 cells, AmaEcR with chimeric RXR-EF (FIG. 8). In kind it is cell-based, Amblyomma americanum. The settings on record: switch 1.22, NIH3T3 cells. As for the experimental part:
as §1, §3

The subject of data set [4] is GAL4CfEcR-DEF. The data set is described as follows: HsRXRβ/LmUSP chimeric RXR LBDs with GAL4CfEcR-DEF and pFRLuc in NIH3T3 cells (FIGS. 9 and 10). In kind it is cell-based, Choristoneura fumiferana. To be noted: CfEcR in combination with chimera 11, FIG. 10.
Description: This Example describes Applicants' further analysis of gene expression cassettes encoding various chimeric RXR polypeptides comprising a mouse RXRα isoform polypeptide fragment or a human RXRβ isoform polypeptide fragment and an LmUSP polypeptide fragment in mouse NIH3T3 cells.
Three individual clones of each chimeric RXR LBD of Table 1 were transfected into mouse NIH3T3 cells along with either GAL4CfEcR-DEF (switches 1.25-1.29 of Example 1; FIGS. 9 and 10) or GAL4DmEcR-DEF (switches 1.30-1.34 of Example 1; FIG. 11) and the reporter plasmid pFRLuc as described above. The transfected cells were cultured in the presence of either a) 0, 0.2, 1, or 10 μM non-steroidal ligand (FIG. 9), or b) 0, 0.2, 1, or 10 μM steroid ligand PonA or 0, 0.4, 0.2, 1, or 10 μM non-steroid ligand (FIGS. 10 and 11) for 48 hours. The reporter gene activity was measured and total RLU are shown. The number on top of each bar is the maximum fold induction for that treatment and is the mean of three replicates.
For data set [5], the system named is GAL4CfEcR-DEF/VP16HsRXRβ-(1-8)-LmUSP-(9-12)-EF (βchimera 9; switch 1.27) gene switch. As to the kind of experiment: Effect of 9-cis-retinoic acid as second ligand on transactivation of switch 1.27 in NIH3T3 cells (FIG. 12). In kind it is cell-based, Choristoneura fumiferana. The settings on record: 0.04 μM non-steroid ligand, absence of 9-cis-retinoic acid. As for the experimental part: In particular, Applicants have determined the effect of 9-cis-retinoic acid on the transactivation potential of the GAL4CfEcR-DEF/VP16HsRXRβ-(1-8)-LmUSP-(9-12)-EF (βchimera 9; switch 1.27) gene switch along with pFRLuc in NIH 3T3 cells in the presence of non-steroid (GSE) for 48 hours.
Briefly, GAL4CfEcR-DEF, pFRLuc and VP16HsRXRβ-(1-8)-LmUSP-(9-12)-EF (chimera #9) were transfected into NIH3T3 cells and the transfected cells were treated with 0, 0.04, 0.2, 1, 5 and 25 μM non-steroidal ligand (GSE) and 0, 1, 5 and 25 μM 9-cis-retinoic acid (Sigma Chemical Company). The reporter activity was measured at 48 hours after adding ligands.

With `CC(C)CC[C@@H](O)[C@](C)(O)[C@H]1CC[C@@]2(O)C3=CC(=O)[C@@H]4C[C@@H](O)[C@@H](O)C[C@]4(C)[C@H]3CC[C@]12C` [PonA, ponasterone A], the figures for the “sensitivity of the switch to steroid versus non-steroid ligand” value with GAL4CfEcR-DEF [1] and at GAL4DmEcR-DEF were “more sensitive to non-steroid than PonA” and “more sensitive to PonA than non-steroid”, respectively. Further, the “sensitivity of the switch to ligand” value in data set [2] and in data set [3] was “more sensitive to PonA” throughout. Besides, the “response of EcR to ligand” value in the data set on GAL4CfEcR-DEF [4] is on record as “responded well to non-steroid but not to PonA”.
`CCc1c(OC)cccc1C(=O)NN(C(=O)c1cc(C)cc(C)c1)C(C)(C)C` [non-steroid, N-(2-ethyl-3-methoxybenzoyl)-N′-(3,5-dimethylbenzoyl)-N′-tert-butylhydrazine]: the “sensitivity of the switch to steroid versus non-steroid ligand” value in the data set with GAL4CfEcR-DEF [1] is “more sensitive to non-steroid than PonA”; on GAL4DmEcR-DEF, “more sensitive to PonA than non-steroid”. For the same molecule, the “sensitivity of the switch to ligand” value in data set [2] and in data set [3] was “less sensitive to non-steroid” throughout. Besides, the “response of EcR to ligand” value in the data set with GAL4CfEcR-DEF [4] was “responded well to non-steroid but not to PonA”. The induction entry in data set [5] is listed as “very little induction”.

B1: MmRXRα-LmUSP chimera: chimeric RXR LBD: helices 1-7 of MmRXRα-EF and helices 8-12 of LmUSP-EF (SEQ ID NO: 45), fused to VP16 (protein)
chain: MGPKKKRKVAPPTDVSLGDELHLDGEDVAMAHADALDDFDLDMLGDGDSPGPGFTPHDSAPYGALDMADFEFEQMFTDALGIDEYGGEFPANEDMPVEKILEAELAVEPKTETYVEANMGLNPSSPNDPVTNICQAADKQLFTLVEWAKRIPHFSELPLDDQVILLRAGWNELLIASFSHRSIAVKDGILLATGLHVHRNSAHSAGVGAIFDRVLTELVSKMRDMQMDKTELGCLRSVILFNPEVRGLKSAQEVELLREKVYAALEEYTRTTHPDEPGRFAKLLLRLPSLRSIGLKCLEHLFFFRLIGDVPIDTFLMEMLESPSDS
Broadly, the fold induction is the signal under treatment as a multiple of the control signal. On to B1, for which the fold induction is recorded as 11,000 fold with GAL4CfEcR-DEF [1] (partner for CfEcR, FIG. 6) and 1759 fold in the data set with GAL4DmEcR-DEF (partner for DmEcR, FIG. 7).
